Assay results published in patent US20240199587A1, “HETEROCYCLIC COMPOUNDS” (Hoffmann-La Roche Inc., priority 2021, published 2024).

What follows are molecules tested against T1, MAGL (Homo sapiens, UniProt Q99685) (assay: 2-AG assay (MAGL inhibitory activity, hydrolysis of 2-arachidonoylglycerol to arachidonic acid followed by mass spectrometry)). Settings: 8 μM 2-arachidonoylglycerol, 15 min pre-incubation, 30 min incubation at RT, RapidFire MS readout.
T1 sequence (Q99685 1-303): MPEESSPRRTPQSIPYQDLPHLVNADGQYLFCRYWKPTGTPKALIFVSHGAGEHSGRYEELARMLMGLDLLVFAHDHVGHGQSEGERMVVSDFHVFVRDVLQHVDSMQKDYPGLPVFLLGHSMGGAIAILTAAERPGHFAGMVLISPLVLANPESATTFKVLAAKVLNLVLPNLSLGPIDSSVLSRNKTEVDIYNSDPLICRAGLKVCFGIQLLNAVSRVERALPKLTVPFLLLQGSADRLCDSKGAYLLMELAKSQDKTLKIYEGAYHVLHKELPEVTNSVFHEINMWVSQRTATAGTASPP
Assay type: biochemical
Method in brief: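 Arachidonic acid released from 8 μM 2-arachidonoylglycerol was quantified by online SPE triple-quadrupole MS (negative ESI, 303.1→259.1), normalised to d8-arachidonic acid internal standard. Reaction ran 30 min at RT after 15 min RT compound pre-incubation with […] MAGL in TRIS/EDTA/Tween-20 buffer, 2.5% DMSO.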
Work on `Cc1cc(C(=O)N2CC3(CC(n4ccc(C5CC5)n4)C3)C2)cnc1OC(C)(C)C(F)(F)F` [Example 152, [6-(3-cyclopropylpyrazol-1-yl)-2-azaspiro[3.3]heptan-2-yl]-[5-methyl-6-(2,2,2-trifluoro-1,1-dimethyl-ethoxy)-3-pyridyl]methanone] yielded an IC50 of 312 nM.
`O=C(N1C[C@H]2CC(Oc3ccc(F)c(Cl)c3)C[C@H]2C1)N1CC2(CC(n3cnc(C4CC4)n3)C2)C1` (mixture of isomers) [Example 126, [6-(3-cyclopropyl-1,2,4-triazol-1-yl)-2-azaspiro[3.3]heptan-2-yl]-[rac-(3aS,6aR)-5-(4-fluoro-3-chloro-phenoxy)-3,3a,4,5,6,6a-hexahydro-1H-cyclopenta[c]pyrrol-2-yl]methanone] showed an IC50 of 1.5 nM.
For `O=C(N1CC2(CC(Oc3cncc(F)c3)C2)C1)N1CC2(CC(n3cnc(C4CC4)n3)C2)C1` [Example 63, (6-(3-cyclopropyl-1H-1,2,4-triazol-1-yl)-2-azaspiro[3.3]heptan-2-yl)(6-((5-fluoropyridin-3-yl)oxy)-2-azaspiro[3.3]heptan-2-yl)methanone], the IC50 was 19.8 nM.
Molecule `O=C(N1CC2(CC(Cc3ccc(F)cc3F)C2)C1)N1CC2(CC(n3cnc(C4CC4)n3)C2)C1` [Example 41, [6-(3-cyclopropyl-1,2,4-triazol-1-yl)-2-azaspiro[3.3]heptan-2-yl]-[6-[(2,4-difluorophenyl)methyl]-2-azaspiro[3.3]heptan-2-yl]methanone] has an IC50 of 0.04 nM.
`O=C(N1CC2(CC(Cc3ccc4[nH]ncc4n3)C2)C1)N1CC2(CC(n3cnc(C4(O)CC4)n3)C2)C1` [Example 383, [6-[3-(1-hydroxycyclopropyl)-1,2,4-triazol-1-yl]-2-azaspiro[3.3]heptan-2-yl]-[6-(1H-pyrazolo[4,3-b]pyridin-5-ylmethyl)-2-azaspiro[3.3]heptan-2-yl]methanone] gave an IC50 of 39.8 nM.
Molecule `O=C(N1CC(CNS(=O)(=O)c2cccc(C(F)(F)F)c2)C1)N1CC2(CC(n3cnc(C4CC4)n3)C2)C1` [Example 246, N-[[1-[6-(3-cyclopropyl-1,2,4-triazol-1-yl)-2-azaspiro[3.3]heptane-2-carbonyl]azetidin-3-yl]methyl]-3-(trifluoromethyl)benzenesul fonamide] has an IC50 of 12.2 nM.
`CP(C)(=O)c1ccc(CN2CC3(C2)CN(C(=O)N2CC4(CC(n5cnc(C(F)(F)F)n5)C4)C2)C3)cc1` [Example 379, [6-[(4-dimethyl-phosphorylphenyl)methyl]-2,6-diazaspiro[3.3]heptan-2-yl]-[6-[3-(trifluoromethyl)-1,2,4-triazol-1-yl]-2-azaspiro[3.3]heptan-2-yl]methanone] gave an IC50 of 3350 nM.
Molecule `O=C(N1CCC(CNS(=O)(=O)c2ccc(C(F)(F)F)cc2)CC1)N1CC2(CC(n3cnc(C4CC4)n3)C2)C1` [Example 253] has an IC50 of 16.2 nM.
`O=C(N1CC(OCc2ccc(F)cc2C(F)(F)F)C1)N1CC2(CC(n3cnc(C4CC4)n3)C2)C1` [Example 78, (6-(3-cyclopropyl-1H-1,2,4-triazol-1-yl)-2-azaspiro[3.3]heptan-2-yl)(3-((4-fluoro-2-(trifluoromethyl)benzyl)oxy)azetidin-1-yl)methanone] showed an IC50 of 12.2 nM.
`O=C(NCC(F)(F)F)c1cnn(C2CN(C(=O)N3CC4(CC(n5cnc(C6CC6)n5)C4)C3)C2)c1` [Example 312, 1-[1-[6-(3-cyclopropyl-1,2,4-triazol-1-yl)-2-azaspiro[3.3]heptane-2-carbonyl]azetidin-3-yl]-N-(2,2,2-trifluoroethyl)pyrazole-4-carboxamide] showed an IC50 of 202 nM.
With `CS(=O)(=O)c1cncc(CC2CC3(C2)CN(C(=O)N2CC4(CC(n5cnc(C6CC6)n5)C4)C2)C3)c1` [Example 489, [6-(3-cyclopropyl-1,2,4-triazol-1-yl)-2-azaspiro[3.3]heptan-2-yl]-[6-[(5-methylsulfonyl-3-pyridyl)methyl]-2-azaspiro[3.3]heptan-2-yl]methanone] the IC50 was 3.28 nM.
With `CC(C)(C)c1nc(-c2ccc(C(=O)N3CC4(CC(n5cnc(Cl)n5)C4)C3)cc2)no1` [Example 172, [4-(5-tert-butyl-1,2,4-oxadiazol-3-yl)phenyl]-[6-(3-chloro-1,2,4-triazol-1-yl)-2-azaspiro[3.3]heptan-2-yl]methanone] the IC50 was 170 nM.
